Test results taken from US20250312326A1, “PHARMACEUTICAL COMPOSITION OF ANTIPLATELET DRUG, AND USE THEREOF” (SHANGHAI CUREGENE PHARMACEUTICAL CO., LTD., priority 2022, published 2025).

Columns and labels:
[1] = Pharmacokinetic in rats: thiol active metabolite in plasma; assay type: in vivo, Male Sprague-Dawley rats; conditions: rat plasma, oral, 10 mg/kg
Method: Male Sprague-Dawley rats were used to conduct pharmacokinetic experiment.
Test compounds (clopidogrel and exemplary compounds provided herein) was administrated orally or intravenously to rat under fast condition. Blood samples were collected via jugular vein at 5 min, 15 min, 30 min, 60 min and 120 min time points with EDTA-K2 (anticoagulant), 3′-methoxyphenacyl bromide (MPBr, derivatization reagent) and phenylmethylsulfonyl fluoride (PMSF, stabilizer). Plasma samples were then harvested by centrifuging at 1500 g for 10 min under 2˜8° C. and stored at −80° C. after separation. Plasma samples were loaded to a LC-MS/MS instrument after extraction to determine the concentration of the thiol active metabolite.

platelet aggregation = assay: Antiaggregatory action in rats (ex vivo ADP-induced platelet aggregation); set-up: species or system Male Sprague-Dawley rats; conditions: rat, oral
Method: Male Sprague-Dawley rats were used for ex vivo platelet aggregation experiments. […] The number of platelets in PRP was measured by hematology analyzer (Siemens, ADVIA2120), and adjusted to 4×10^8/mL with PPP. Platelet aggregation was determined using turbidimetric aggregometry method by an automatic platelet aggregometer ([…]). The aggregometer was primarily warmed up to 37° C., and PRP (290 μL) sample was added to the cuvette and set in the automatic platelet aggregometer. […] Antiaggregatory action of test compounds was expressed as inhibition (%) which determined by the relation: […]

[2] = loading dose 300-600 mg; cited from earlier work
[3] = human body; cited from earlier work

## CCOC(=O)/C=C1\CN([C@H](C(=O)OC)c2ccccc2Cl)CCC1SCOC(=O)OC(C)C (stereo partly shown) [Compound 2a]
[1]
  peak concentration of the thiol active metabolite compared with clopidogrel: significantly higher

## COC(=O)[C@H](c1ccccc1Cl)N1CCC(SCOC(=O)OC(C)C)/C(=C\C(=O)O)C1 (stereo partly shown) [Compound 1b]
[1]
  peak concentration of the thiol active metabolite compared with clopidogrel: significantly higher
Platelet aggregation; Platelet, 2 mg/kg, ADP 10 μM, read-out: maximum inhibition of platelet aggregation
  inhibition at 2 mg/kg: ~45%
Platelet aggregation; 2 mg/kg
  time to maximum inhibition of platelet aggregation: 60 min

## COC(=O)[C@H](c1ccccc1Cl)N1CCc2sccc2C1 [clopidogrel, Clopidogrel]
[2]
  onset of therapeutic effect after loading dose administration: 2 h
Platelet aggregation; Platelet, 10 mg/kg, ADP 10 μM, read-out: maximum inhibition of platelet aggregation
  inhibition at 10 mg/kg: ~45%
Platelet aggregation; 10 mg/kg
  time to maximum inhibition of platelet aggregation: about 120 minutes
[3]
  fraction producing inactive metabolites through non-oxidative hydrolysis: about 85%
  fraction undergoing two-step oxidation (cytochrome P450, mainly CYP2C19) to active metabolite H4: about 15%

## COC(=O)[C@H](c1ccccc1Cl)N1CCC(SCOC(=O)OC(C)C)/C(=C/C(=O)O)C1 (stereo partly shown) [Compound 1a]
[1]
  peak concentration of the thiol active metabolite compared with clopidogrel: significantly higher
